Assay: Anticancer human tumor 997537-175-T-J1-PDC patient-derived colon adenocarcinoma cell line growth inhibition [POLQ]
Conditions: 997537-175-T-J1-PDC complex spheroid viability, combination with POLQ inhibitors; for IC50: curve of first compound; for viability, T/C: stronger effect = lower value
Procedure, shortened: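 Growth inhibition in 3D: complex spheroids (tumor PDC, HUVEC, MSC) treated with POLQ inhibitor combinations; where Cmax unknown, highest tested concentration 10 microM, except SN-38 at 1 microM.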
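Further: luminescence signal used as a surrogate for viable cells; spheroids exposed to drugs for seven days before readout.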

For `COc1cccc2c1C(=O)c1c(O)c3c(c(O)c1C2=O)CC(O)(C(=O)CO)CC3OC1CC(N)C(O)C(C)O1` (configuration not stated) + COC1C(OC(N)=O)C(O)C(Oc2ccc3c(O)c(NC(=O)c4ccc(O)c(CC=C(C)C)c4)c(=O)oc3c2C)OC1(C)C, the IC50 (second compound 0.0316 µM) was 2490 nM, the IC50 (second compound 0.1 µM) was 1660 nM and the IC50 (second compound 0.316 µM) was 2220 nM. For the same compound, the IC50 (second compound 1 µM) was 3230 nM, the IC50 (second compound 3.16 µM) was 2030 nM and the IC50 (second compound 10 µM) was 2770 nM. The viability, T/C (second compound 0.0316 µM, first compound 0.0316 µM) was 114%, the viability, T/C (second compound 0.0316 µM, first compound 0.1 µM) was 100% and the viability, T/C (second compound 0.0316 µM, first compound 0.316 µM) was 98%. For the same compound, the viability, T/C (second compound 0.0316 µM, first compound 1 µM) was 84.8%, the viability, T/C (second compound 0.0316 µM, first compound 3.16 µM) was 40.2% and the viability, T/C (second compound 0.0316 µM, first compound 10 µM) was 7.93%. It also gave a viability, T/C (second compound 0.1 µM, first compound 0.0316 µM) of 102%, a viability, T/C (second compound 0.1 µM, first compound 0.1 µM) of 114% and a viability, T/C (second compound 0.1 µM, first compound 0.316 µM) of 95.6%. For the same compound, the viability, T/C (second compound 0.1 µM, first compound 1 µM) was 75.4%, the viability, T/C (second compound 0.1 µM, first compound 3.16 µM) was 18.1% and the viability, T/C (second compound 0.1 µM, first compound 10 µM) was 10.4%. For the same compound, the viability, T/C (second compound 0.316 µM, first compound 0.0316 µM) was 101%, the viability, T/C (second compound 0.316 µM, first compound 0.1 µM) was 99.8% and the viability, T/C (second compound 0.316 µM, first compound 0.316 µM) was 102%. It also gave a viability, T/C (second compound 0.316 µM, first compound 1 µM) of 96.6%, a viability, T/C (second compound 0.316 µM, first compound 3.16 µM) of 29.2% and a viability, T/C (second compound 0.316 µM, first compound 10 µM) of 8.56%. For the same compound, the viability, T/C (second compound 1 µM, first compound 0.0316 µM) was 94.7%, the viability, T/C (second compound 1 µM, first compound 0.1 µM) was 89.8% and the viability, T/C (second compound 1 µM, first compound 0.316 µM) was 88%. It also gave a viability, T/C (second compound 1 µM, first compound 1 µM) of 95.1%, a viability, T/C (second compound 1 µM, first compound 3.16 µM) of 50.8% and a viability, T/C (second compound 1 µM, first compound 10 µM) of 9.76%. For the same compound, the viability, T/C (second compound 3.16 µM, first compound 0.0316 µM) was 106%, the viability, T/C (second compound 3.16 µM, first compound 0.1 µM) was 119% and the viability, T/C (second compound 3.16 µM, first compound 0.316 µM) was 75.4%. It also gave a viability, T/C (second compound 3.16 µM, first compound 1 µM) of 77.6%, a viability, T/C (second compound 3.16 µM, first compound 3.16 µM) of 34.8% and a viability, T/C (second compound 3.16 µM, first compound 10 µM) of 13.1%. For the same compound, the viability, T/C (second compound 10 µM, first compound 0.0316 µM) was 96.5%, the viability, T/C (second compound 10 µM, first compound 0.1 µM) was 99.3% and the viability, T/C (second compound 10 µM, first compound 0.316 µM) was 107%. It also gave a viability, T/C (second compound 10 µM, first compound 1 µM) of 97.4%, a viability, T/C (second compound 10 µM, first compound 3.16 µM) of 43.9% and a viability, T/C (second compound 10 µM, first compound 10 µM) of 7.86%.

— PubChem BioAssay AID1963825 (Molecular Pharmacology Branch, DTP, NCI, 2024)
